The record followed here is US9115127B2 (AMGEN INC., priority 2010, dated 2015).

Some results are limits rather than exact numbers.

The target of the test is T1, wild-type human ALK (cytoplasmic domain, amino acids 1058-1620, N-terminal GST fusion) (Homo sapiens, UniProt Q9UM73).
T1 construct: The cytoplasmic domain (amino acids 1058-1620) of wild-type human ALK; GST (N); made in house; host or cells: SF9 insect cells
T1 sequence (Q9UM73 1058-1620): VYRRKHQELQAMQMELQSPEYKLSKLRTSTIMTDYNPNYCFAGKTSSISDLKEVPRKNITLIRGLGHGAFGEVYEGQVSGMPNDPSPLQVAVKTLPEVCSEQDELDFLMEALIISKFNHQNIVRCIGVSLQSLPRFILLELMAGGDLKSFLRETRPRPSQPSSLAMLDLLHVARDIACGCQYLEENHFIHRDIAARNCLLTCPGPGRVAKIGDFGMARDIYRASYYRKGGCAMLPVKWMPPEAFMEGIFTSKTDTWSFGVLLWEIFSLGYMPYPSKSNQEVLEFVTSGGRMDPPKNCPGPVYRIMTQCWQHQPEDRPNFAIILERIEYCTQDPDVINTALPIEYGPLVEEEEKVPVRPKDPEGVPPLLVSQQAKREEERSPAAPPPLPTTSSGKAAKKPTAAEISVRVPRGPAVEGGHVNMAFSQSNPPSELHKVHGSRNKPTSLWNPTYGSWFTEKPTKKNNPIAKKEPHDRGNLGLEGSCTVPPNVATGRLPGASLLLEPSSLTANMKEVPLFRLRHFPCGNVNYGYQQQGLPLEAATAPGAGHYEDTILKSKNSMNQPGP
Briefly: ALK Inhibition in Enzyme Assay (Lance TR-FRET kinase assay). In kind it is biochemical. How it is done:
ALK Inhibition in Enzyme Assay
Kinase activity of the purified protein was assessed using a Lance® TR-FRET assay. […] The reaction was allowed to proceed for 90 minutes at room temperature and was then terminated with 20 mM EDTA in 50 mM Tris (pH 7.5), 100 mM NaCl, 0.05% BSA, and 0.1% Tween-20. Phosphorylation of the peptide substrate was detected using the Lance® detection reagents streptavidin-allophycocyanin (SA-APC) and Eu-W1024 anti-phosphotyrosine antibody (PT66) from Perkin Elmer Life Sciences (Waltham, Mass.). The plates were read on a RUBY star plate reader (BMG LABTECH, Cary, N.C.) with an excitation wavelength of 320 nm.
Broadly, the IC50 is the concentration that inhibits the measured activity by half. A higher IC50 goes with weaker potency in that assay. On to `COc1ccc(COc2ccc3nc(NC(=O)c4ccc(F)cc4)n([C@H]4CC[C@@H](C(=O)NC(C)C)CC4)c3c2)cc1` [Example 153, 4-Fluoro-N-(6-((4-methoxybenzyl)oxy)-1-(cis-4-((1-methylethyl)carbamoyl)cyclohexyl)-1H-benzimidazol-2-yl)benzamide], for which the IC50 is under 50 nM. The molecule `CC(C)NC(=O)[C@H]1CC[C@@H](n2/c(=N/C(=O)c3cccc(S(C)(=O)=O)c3)[nH]c3cnc(OCCN4CCCCC4)cc32)CC1` [Example 93, (E)-N-(1-(cis-4-(Isopropylcarbamoyl)cyclohexyl)-6-(2-(piperidin-1-yl)ethoxy)-1H-imidazo[4,5-c]pyridin-2(3H)-ylidene)-3-(methylsulfonyl)benzamide] showed an IC50 of 1000 to 5000 nM. Under `COc1cc2c(cn1)[nH]/c(=N\C(=O)c1ccc(F)cc1)n2[C@H]1CC[C@@H](C(=O)NC(C)C)CC1` [Example 157, (E)-4-Fluoro-N-(1-(cis-4-(isopropylcarbamoyl)cyclohexyl)-6-methoxy-1H-imidazo[4,5-c]pyridin-2(3H)-ylidene)benzamide] stands under 50 nM. Under `CC(C)(O)C1CCN(Cc2ccc3[nH]/c(=N\C(=O)c4ccc(F)cc4)n([C@H]4CC[C@@H](C(=O)O)CC4)c3c2)CC1` [Example 210, cis-4-((E)-2-(4-Fluorobenzoylimino)-6-((4-(2-hydroxypropan-2-yl)piperidin-1-yl)methyl)-2,3-dihydro-1H-benzo[d]imidazol-1-yl)cyclohexanecarboxylic acid] stands 100 to 1000 nM; under `O=C(/N=c1\[nH]c2ccc(CN3CCOCC3)cc2n1[C@H]1CC[C@@H](C(=O)N2CCNCC2)CC1)c1ccc(F)cc1` [Example 204, (E)-4-Fluoro-N-(6-(morpholinomethyl)-1-(cis-4-(piperazine-1-carbonyl)cyclohexyl)-1H-benzo[d]imidazol-2(3H)-ylidene)benzamide], under 50 nM; under `CC(C)NC(=O)[C@H]1CC[C@@H](n2/c(=N/C(=O)c3ccc(C#N)cc3)[nH]c3cnc(OCCN4CCC(C(C)(C)O)CC4)cc32)CC1` [Example 129, (E)-4-Cyano-N-(6-(2-(4-(2-hydroxypropan-2-yl)piperidin-1-yl)ethoxy)-1-(cis-4-(isopropylcarbamoyl)cyclohexyl)-1H-imidazo[4,5-c]pyridin-2(3H)-ylidene)benzamide], under 50 nM. `COC(=O)[C@H]1CC[C@@H](n2/c(=N/C(=O)c3ccccc3)[nH]c3cnccc32)CC1` [Example 1, cis-Methyl 4-((E)-2-(benzoylimino)-2,3-dihydro-1H-imidazo[4,5-c]pyridin-1-yl)cyclohexanecarboxylate] showed an IC50 of 100 to 1000 nM. Under `CC(C)(O)C1CCN(CCOc2cc3c(cn2)[nH]/c(=N\C(=O)c2cccc(F)c2)n3[C@H]2CC[C@@H](C(=O)N3C[C@@H]4C[C@H]3CN4)CC2)CC1` (relative stereo) [Example 84, (E)-N-(1-(cis-4-(cis-2,5-Diazabicyclo[2.2.1]heptane-2-carbonyl)cyclohexyl)-6-(2-(4-(2-hydroxypropan-2-yl)piperidin-1-yl)ethoxy)-1H-imidazo[4,5-c]pyridin-2(3H)-ylidene)-3-fluorobenzamide] stands 100 to 1000 nM. Under `CC(C)NC(=O)[C@H]1CC[C@@H](n2/c(=N/C(=O)c3ccc(F)cc3)[nH]c3ccc(CN4CCCC(C(N)=O)C4)cc32)CC1` (stereo partly drawn) [Example 180, 1-(((E)-2-(4-Fluorobenzoylimino)-3-(cis-4-(isopropylcarbamoyl)-cyclohexyl)-2,3-dihydro-1H-benzo[d]imidazol-5-yl)methyl)piperidine-3-carboxamide] stands under 50 nM. Under `CC(C)NC(=O)[C@H]1CC[C@@H](n2/c(=N/C(=O)c3ccc4ccn(C)c4c3)[nH]c3cnc(OCCN4CCCCC4)cc32)CC1` [Example 109, (E)-N-(1-(cis-4-(Isopropylcarbamoyl)cyclohexyl)-6-(2-(piperidin-1-yl)ethoxy)-1H-imidazo[4,5-c]pyridin-2(3H)-ylidene)-1-methyl-1H-indole-6-carboxamide] stands 1000 to 5000 nM; under `C[C@H]1CN(C(=O)[C@H]2CC[C@@H](n3/c(=N/C(=O)c4ccc(F)cc4)[nH]c4cnc(OCCN5CCCCC5)cc43)CC2)CCN1C(=O)OC(C)(C)C` [Example 60, (S)-tert-Butyl 4-(cis-4-((E)-2-(4-fluorobenzoylimino)-6-(2-(piperidin-1-yl)ethoxy)-2,3-dihydro-1H-imidazo[4,5-c]pyridin-1-yl)cyclohexanecarbonyl)-2-methylpiperazine-1-carboxylate], 1000 to 5000 nM. `CC(C)NC(=O)[C@H]1CC[C@@H](n2/c(=N/C(=O)c3ccc(F)cc3)[nH]c3ccc(CN4CCC(C(O)C(F)(F)F)CC4)cc32)CC1` (stereo partly drawn) [Example 186, (E)-4-Fluoro-N-(1-(cis-4-(isopropylcarbamoyl)-cyclohexyl)-6-((4-(2,2,2-trifluoro-1-hydroxyethyl)piperidin-1-yl)methyl)-1H-benzo[d]imidazol-2(3H)-ylidene)benzamide] had an IC50 of under 50 nM.

As to `CC(C)NC(=O)[C@]1(O)CC[C@H](n2/c(=N/C(=O)c3ccc(F)cc3)[nH]c3cnc(OCCN4CCCCC4)cc32)CC1` [Example 63, (E)-4-Fluoro-N-(1-(trans-4-hydroxy-4-(isopropylcarbamoyl)cyclohexyl)-6-(2-(piperidin-1-yl)ethoxy)-1H-imidazo[4,5-c]pyridin-2(3H)-ylidene)benzamide], the IC50 was in the range of 50 to 100 nM. In turn, `C=CCNS(=O)(=O)c1cccc(C(=O)Nc2nc3ccc(CN4CCCCC4)cc3n2C23CC4CC(CC(C4)C2)C3)c1` [Example 18, 3-(N-Allylsulfamoyl)-N-(1-adamantyl-6-(piperidin-1-ylmethyl)-1H-benzo[d]imidazol-2-yl)benzamide] gave an IC50 of under 50 nM. To `O=C(/N=c1\[nH]c2ccc(CN3CCCCC3)cc2n1[C@H]1CC[C@@H](C(=O)Nc2nccs2)CC1)c1ccc(F)cc1` [Example 49, (E)-4-Fluoro-N-(6-(piperidin-1-ylmethyl)-1-(cis-4-(thiazol-2-ylcarbamoyl)cyclohexyl)-1H-benzo[d]imidazol-2(3H)-ylidene)benzamide] belongs 50 to 100 nM; to `CC(C)NC(=O)[C@H]1CC[C@@H](n2/c(=N/C(=O)c3ccc(F)cc3)[nH]c3ccc(CN4CCN(CC(C)(C)O)CC4)cc32)CC1` [Example 185, (E)-4-Fluoro-N-(6-((4-(2-hydroxy-2-methylpropyl)piperazin-1-yl)methyl)-1-(cis-4-(isopropylcarbamoyl)cyclohexyl)-1H-benzo[d]imidazol-2(3H)-ylidene)benzamide], under 50 nM; to `CC(C)NC(=O)[C@H]1CC[C@@H](n2/c(=N/C(=O)c3cccc(OC(F)(F)F)c3)[nH]c3cnc(OCCN4CCCCC4)cc32)CC1` [Example 121, (E)-N-(1-(cis-4-(Isopropylcarbamoyl)cyclohexyl)-6-(2-(piperidin-1-yl)ethoxy)-1H-imidazo[4,5-c]pyridin-2(3H)-ylidene)-3-(trifluoromethoxy)benzamide], 50 to 100 nM. To `CC(C)NC(=O)[C@H]1CC[C@@H](n2/c(=N/C(=O)c3ccc(F)cc3)[nH]c3cnc(N4CCOCC4)cc32)CC1` [Example 222, (E)-4-Fluoro-N-(1-(cis-4-(isopropylcarbamoyl)cyclohexyl)-6-morpholino-1H-imidazo[4,5-c]pyridin-2(3H)-ylidene)benzamide] belongs under 50 nM.

The molecule `O=C(/N=c1\[nH]c2ccc(CN3CCCCC3)cc2n1C12CC3CC(CC(C3)C1)C2)c1ccccc1` [Example 16] came in with an IC50 of 50 to 100 nM. Regarding `C[C@@H]1CN(C(=O)OC(C)(C)C)CCN1C(=O)[C@H]1CC[C@@H](n2/c(=N/C(=O)c3ccc(C#N)cc3)[nH]c3cnc(OCCN4CCCCC4)cc32)CC1` [Example 57, (R)-tert-Butyl 4-(cis-4-((E)-2-(4-cyanobenzoylimino)-6-(2-(piperidin-1-yl)ethoxy)-2,3-dihydro-1H-imidazo[4,5-c]pyridin-1-yl)cyclohexanecarbonyl)-3-methylpiperazine-1-carboxylate], the IC50 is under 50 nM.

`COC(=O)[C@H]1CC[C@@H](n2c(NC(=O)c3ccccc3)nc3ccc(CN4C(C)(C)CCCC4(C)C)cc32)CC1` [Example 19, cis-Methyl 4-(2-benzamido-6-((2,2,6,6-tetramethylpiperidin-1-yl)methyl)-1H-benzo[d]imidazol-1-yl)cyclohexanecarboxylate] came in with an IC50 of under 50 nM. For `CC(C)NC(=O)[C@H]1CC[C@@H](n2/c(=N/C(=O)c3ccc(F)cc3)[nH]c3ccc(O)cc32)CC1` [Example 154, 4-Fluoro-N-(6-hydroxy-1-(cis-4-(isopropylcarbamoyl)cyclohexyl)-1H-benzo[d]imidazol-2-yl)benzamide], the IC50 is under 50 nM.

`CNCC(=O)N1CCC(n2/c(=N/C(=O)c3ccccc3)[nH]c3cnc(OCCN4CCCCC4)cc32)CC1` [Example 75, (E)-N-(1-(1-(2-(Methylamino)acetyl)piperidin-4-yl)-6-(2-(piperidin-1-yl)ethoxy)-1H-imidazo[4,5-c]pyridin-2(3H)-ylidene)benzamide] yielded an IC50 of 100 to 1000 nM. Under `CC(C)(O)CNC(=O)[C@H]1CC[C@@H](n2/c(=N/C(=O)c3ccc(F)cc3)[nH]c3ccc(CN4CCOCC4)cc32)CC1` [Example 206, (E)-4-Fluoro-N-(1-(cis-4-(2-hydroxy-2-methylpropylcarbamoyl)-cyclohexyl)-6-(morpholinomethyl)-1H-benzo[d]imidazol-2(3H)-ylidene)benzamide] stands 50 to 100 nM.

The molecule `CC(C)NC(=O)[C@H]1CC[C@@H](n2/c(=N/C(=O)c3ccc(F)cc3)[nH]c3ccc(CN4CCC(C(=O)N5CCOCC5)CC4)cc32)CC1` [Example 182, (E)-4-Fluoro-N-(1-(cis-4-(isopropylcarbamoyl)cyclohexyl)-6-((4-(morpholine-4-carbonyl)piperidin-1-yl)methyl)-1H-benzo[d]imidazol-2(3H)-ylidene)benzamide] registered an IC50 of under 50 nM.
